Results published in US20250269062A1, “METHODS FOR IN VIVO EDITING OF A LIVER GENE” (INTELLIA THERAPEUTICS, INC., priority 2021, published 2025).
Entries after “also recorded” stand apart in the source; their conditions may differ.

How the values were obtained:
[1] = Clinical plasma pharmacokinetics of NTLA-2001 components (LC-MS/MS for Lipid A and DMG-PEG2k, qRT-PCR for guide RNA and mRNA); format: in vivo, human; conditions: for plasma concentration-time profile: following single IV infusion of NTLA-2001, interim
Excerpt: Plasma pharmacokinetic methods were developed and validated to quantify 4 components of NTLA-2001: ionizable Lipid A (also referred to as LP01), DMG-PEG2k lipid, guide RNA, and mRNA. Lipid A and DMG-PEG2k are quantified by liquid chromatography with tandem mass spectrometry (LC-MS/MS) method. Assay signal [ratio of area under the curve of reference standard over internal standard (IS, using isotopic labelled reference standard)] vs. Concentration response standard curve is used. QCs and unknown sample signal are interpolated from standard curve to determine plasma concentrations. Both guide RNA and mRNA are quantified by qRT-PCR. Signal Cycle Threshold (Ct) vs. Concentration standard curve is used. QCs and unknown samples were interpolated from standard curve to quantify plasma concentrations. Urine PK methods were developed and validated for Lipid A and DMG-PEG2k to characterize excretion.
Preliminary plasma PK data are available for the four components of NTLA-2001 (ionizable Lipid A, DMG-PEG2k lipid, guide RNA, and mRNA). […] FIG. 24. Data for other components not shown.

[2] = Population pharmacokinetics (POPPK) model and simulations of LP01; design: species or system human; conditions: interim POPPK model, 15 ATTRv-PN subjects
Protocol: An interim POPPK model was developed for NTLA-2001 analyte LP01 based on a published model using NONMEM software (Version 7.5.0, ICON Clinical Research LLC, Blue Vell, PA). There were 290 observations in 15 ATTRv-PN subjects for this analysis. Parameter values for this model and goodness of fit plots were determined (not shown). The relationship between body weight and the estimated elimination clearance was determined, together with the modeled linear relationship.
FIG. 26 provides the distribution of simulated AUC by weight quartile following administration of 1 mg/kg (left panel) and 80 mg (right panel) NTLA-2001. […] Likewise, following 80 mg NTLA-2001, there is again overlap of simulated LP01 AUC across weight quartiles. […] The ratio of simulated mean exposures in the 4th ([90.3-146] kg) to the 1st weight quartile ([48-71.7] kg) is 1.25 for 1 mg/kg NTLA-2001 and 0.81 for 80 mg NTLA-2001. Simulations identified NTLA-2001 80 mg as the fixed dose equivalent to 1.0 mg/kg.

half-life ([1]; human, plasma, single IV infusion of NTLA-2001 at 0.1 to 1.0 mg/kg, range across doses, preliminary, read-out: mean (% CV) terminal t1/2): 19.7 to 24.8 h
SMILES: CCCCC/C=C\C/C=C\CCCCCCCC(=O)OCC(COC(=O)CCC(OCCCCCCCC)OCCCCCCCC)COC(=O)OCCCN(CC)CC (stereo not shown) [LP01, (9Z,12Z)-3-((4,4-bis(octyloxy)butanoyl)oxy)-2-((((3-(diethylamino)propoxy)carbonyl)oxy)methyl)propyl octadeca-9,12-dienoate]
plasma concentration-time profile [1]: rapid decline from peak levels, followed by a secondary peak, and then a log-linear phase; also recorded: declines rapidly from peak and then exhibits a secondary peak and log-linear phase | plasma concentration-time profile ([1]; listed as NTLA-2001 ionizable lipid): rapid decline from peak levels followed by a secondary peak and then a log-linear phase | relationship between body weight and estimated elimination clearance [2]: less than proportional
